The conditions of data set [1]: cited from earlier work; for Estimtated Dose of L Isomer that Induces Convulsions in Mice (Relative to MSO): Table 1; for Estimtated Dose of L Isomer that Induces Convulsions in Mice (Relative to MSO) / Estimated Dose of L Isomer that Induces Convulsions in Mice (Relative to MSO): relative to MSO = 1; for Estimated Dose of L Isomer that Induces Convulsions in Mice (Relative to MSO): Table 3; for Dose that induces convulsions in mice relative to the dose of MSO: α-Et-MSO: convulsions in a minority of mice vs MSO in 100% of mice.

The conditions of data set [2]: cited from earlier work.
Data set [3] has as its system M. tuberculosis Erdman. Kind of data set: M. tuberculosis growth in broth culture (CFU). Type of data set: cell-based. To be noted: for Efficacy against M. tuberculosis growth in broth culture in comparison with MSO: 10, 100, 1000 μM, Example 6, FIG. 4; for Inhibition of growth of M. tuberculosis in broth culture: 10, 100 or 1000 μM, 6 weeks; for Inhibition of growth of M. tuberculosis in broth culture / Inhibition of M. tuberculosis in broth culture relative to MSO: Example 7; for Inhibition of M. tuberculosis in broth culture relative to MSO: at each of 10, 100, 1000 μM.

Data set [4] addresses T1, mammalian gamma-glutamylcysteine synthetase (γ-GCS) (Homo sapiens, UniProt P48506).
T1 sequence (P48506 1-637): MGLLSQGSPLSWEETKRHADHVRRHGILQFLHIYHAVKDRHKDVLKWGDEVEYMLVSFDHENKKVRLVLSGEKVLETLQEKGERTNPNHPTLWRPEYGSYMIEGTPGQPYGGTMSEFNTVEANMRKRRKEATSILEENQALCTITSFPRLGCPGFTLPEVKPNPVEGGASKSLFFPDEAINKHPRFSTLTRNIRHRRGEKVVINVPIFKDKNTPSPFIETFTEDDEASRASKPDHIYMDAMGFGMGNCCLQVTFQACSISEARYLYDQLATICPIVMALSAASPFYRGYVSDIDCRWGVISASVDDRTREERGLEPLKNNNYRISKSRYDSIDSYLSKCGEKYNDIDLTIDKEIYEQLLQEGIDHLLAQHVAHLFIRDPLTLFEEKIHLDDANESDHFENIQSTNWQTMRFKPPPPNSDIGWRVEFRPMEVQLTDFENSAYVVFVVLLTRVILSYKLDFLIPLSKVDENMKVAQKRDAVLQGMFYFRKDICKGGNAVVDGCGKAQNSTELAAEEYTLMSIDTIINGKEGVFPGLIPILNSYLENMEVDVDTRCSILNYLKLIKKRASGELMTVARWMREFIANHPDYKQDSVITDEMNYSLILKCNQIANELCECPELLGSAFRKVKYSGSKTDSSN
To be noted: cited from earlier work.

Data set [5] has as its target mammalian glutamine synthetase (MGS) (Homo sapiens, UniProt P15104). To be noted: cited from earlier work.
Data set [6] deals with M. tuberculosis Erdman in human macrophages (THP-1 cells). The conditions noted are these: 20, 200, 2000 μM, FIG. 5.
The conditions of data set [7]: BSO at doses that fully inhibit glutathione synthesis, guinea pigs; cited from earlier work.
The test system of data set [8] is M. tuberculosis Erdman strain. The conditions noted are these: in vivo.

Where “and” joins values, the source holds several entries; their conditions need not be identical. Equal values may be shown once. Bounds are passed on as bounds.

Sequence of mammalian glutamine synthetase (MGS) (P15104 2-373 limits assumed): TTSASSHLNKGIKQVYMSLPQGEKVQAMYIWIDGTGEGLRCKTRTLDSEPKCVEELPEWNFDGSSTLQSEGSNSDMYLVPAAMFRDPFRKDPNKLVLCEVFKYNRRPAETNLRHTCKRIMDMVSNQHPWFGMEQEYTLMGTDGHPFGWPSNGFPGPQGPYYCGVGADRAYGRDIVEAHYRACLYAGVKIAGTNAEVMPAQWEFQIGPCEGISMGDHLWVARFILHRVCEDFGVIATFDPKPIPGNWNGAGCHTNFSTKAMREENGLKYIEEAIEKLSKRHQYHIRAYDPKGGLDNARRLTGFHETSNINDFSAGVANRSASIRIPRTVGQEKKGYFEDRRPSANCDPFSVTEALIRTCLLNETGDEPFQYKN

`O=C1O[C@H]([C@@H](O)CO)C(O)=C1O` [ascorbate]: the “Well tolerated total dose of ascorbate” value (i.p., guinea pigs, 9 mmoles kg^−1 day^−1 not well tolerated) was 3 mmol/kg/day.
For the molecule `CCC(N)(CCS(C)(=N)=O)C(=O)O` (racemic) [α-Et-MSO, α-ethyl-DL-methionine-SR-sulfoximine], in [1], the “Estimtated Dose of L Isomer that Induces Convulsions in Mice (Relative to MSO)” value (“Estimtated Dose … (Relative to MSO)” for short) is reported as more than 16, the “Estimated Dose of L Isomer that Induces Convulsions in Mice (Relative to MSO)” value (from here on “Estimated Dose … (Relative to MSO)”) is given as “≧16” and the “Dose that induces convulsions in mice relative to the dose of MSO” value was 16 fold. For the same molecule, the Metabolism result in data set [2] is “resistant to metabolism”. In data set [3], the “Efficacy against M. tuberculosis growth in broth culture in comparison with MSO” value is on record as “as inhibitory to M. tuberculosis growth as MSO”, the “Inhibition of growth of M. tuberculosis in broth culture” value (“Inhibition of growth of M. tuberculosis” for short) is listed as “inhibited M. tuberculosis” and the “Inhibition of M. tuberculosis in broth culture relative to MSO” value is on record as “as inhibitory or slightly more inhibitory than MSO”. Further, the “Inhibition of γ-GCS” value in data set [4] is reported as “specific to GS”. Also, the “Inhibition of mammalian GS” value in data set [5] is listed as “inhibit mammalian GS”. Moreover, the “Inhibition of M. tuberculosis growth in human macrophages” value in [6] was “readily inhibited”.
On to `CCCCS(=N)(=O)CCC(N)C(=O)O` [BSO, D, L-Buthionine-SR-Sulfoximine, reference compound], for which the Animals killed in [7] is listed as 100%. Also, in data set [3], the “Inhibition of growth of M. tuberculosis” value is “did not”.
Regarding `NNC(=O)c1ccncc1` [INH, isoniazid], in [8], the “Protection from weight loss, drug administered alone” value is reported as “protected animals from weight loss”; the “Reduction of CFU in lung and spleen below the level obtained with MSO” value was ~1.5 logs and ~2.5 logs.
In the case of `CC(N)(CCS(C)(=N)=O)C(=O)O` (racemic) [α-Me-MSO, α-methyl-DL-methionine-SR-sulfoximine], in data set [1], the “Estimtated Dose … (Relative to MSO)” value was 8, the “Estimated Dose … (Relative to MSO)” value is 8 and the “Dose that induces convulsions in mice relative to the dose of MSO” value is given as approximately 8 fold. For the same molecule, the Metabolism entry in data set [2] is reported as “resistant to metabolism”. In data set [3], the “Efficacy against M. tuberculosis growth in broth culture in comparison with MSO” value is “as inhibitory to M. tuberculosis growth as MSO”, the “Inhibition of growth of M. tuberculosis” value is given as “inhibited M. tuberculosis” and the “Inhibition of M. tuberculosis in broth culture relative to MSO” value is reported as “slightly less inhibitory than MSO”. For the same molecule, the “Inhibition of γ-GCS” value in data set [4] is reported as “inhibit γ-GCS”. Also, the “Inhibition of mammalian GS” value in data set [5] is “inhibit mammalian GS”. In addition, the “Inhibition of M. tuberculosis growth in human macrophages” value in data set [6] is “readily inhibited”.
As to `CS(=N)(=O)CC[C@H](N)C(=O)O` (stereo partly drawn) [MSO, L-methionine-SR-sulfoximine], in data set [8], the “Fewer CFU of M. tuberculosis in organs than control animals” value is “approximately 1 log unit”; the “Protection from weight loss, drug administered alone” value is listed as “protected animals from weight loss”; the “Reduction of CFU of M. tuberculosis compared with control animals” value was approximately 0.7 logs; the “Weight loss compared with untreated control animals” value was “protected from a precipitous decline in weight loss in the final week”. Moreover, the “Reduction of CFU in the lungs and spleen compared with untreated controls” value in [8] (ip) is on record as 2.5 logs. In [1], the “Estimtated Dose … (Relative to MSO)” value is on record as 1 and the “Estimated Dose … (Relative to MSO)” value is 1. For the setting “guinea pig, in vivo”, the “MTD in the presence of ascorbate relative to MTD in the absence of ascorbate” value stood at 4 fold, the “Maximum tolerated dose for guinea pigs infected with M. tuberculosis” value was found to be 1.5 mg/kg/day and the Tolerability result was “early weight loss”. In addition, the “Inhibition of growth of M. tuberculosis” value in [3] is “inhibited M. tuberculosis”. In addition, the “Inhibition of γ-GCS” value in data set [4] is “inhibit γ-GCS”. Further, the “Inhibition of mammalian GS” value in [5] is “inhibit mammalian GS”.

These data come from patent US20040157802A1, “Anti-microbial agents derived from methionine sulfoximine analogues” (priority 2002, published 2004).
